{"source": "patent US8865737B2", "about": "“Antitumor agent for undifferentiated gastric cancer” (Eisai R&D Management Co., Ltd., priority 2006, dated 2014)", "key": {"[1]": {"test_system": "HSC-39", "experiment": "Apoptosis of human undifferentiated gastric cancer cell line (PARP / caspase-3 fragmentation, western blotting)", "format": "cell-based", "conditions": "1 μM, HSC-39, one or three days (FIG. 2)", "method": "Human undifferentiated gastric cancer cell line HSC-39 (purchased from Immuno-Biological Laboratories) was suspended in an RPMI1640 medium (purchased from Sigma) containing 10% FBS. Five mL of the cell suspension (4×10^5 cells/mL) was placed into a […] (purchased from FALCON). To this, 5 mL of the test substance 4-(3-chloro-4-(cyclopropylaminocarbonyl)aminophenoxy)-7-methoxy-6-quinolinecarboxamide (methanesulfonate) diluted in an RPMI1640 medium containing 10% FBS was added and cultured in a 5% CO2 incubator (37° C.) for one or three days. The culture solution was collected and each flask was washed with 5 mL PBS. The mixture of the collected culture solution and the washing solution was centrifuged at 1,000 rpm, at 4° C. for 5 minutes. For precipitation, 100 μL of a lysis buffer (50 mM Hepes (pH 7.4), 150 mM NaCl, 10% (v/v) glycerol, 1% Triton X-100, 1.5 mM MgCl2, 1 mM EDTA (pH 8.0), 100 mM NaF, 1 mM PMSF, 10 μg/mL Aprotinin, 50 μg/mL Leupeptin, 1 μg/mL Pepstatin A, 1 mM Na3VO4) was added to solubilize the cells. This solution was collected and centrifugated at 15,000 rpm, at 4° C. for 15 minutes. An SDS buffer was added to the supernatant to prepare a 25 μg/15 μL solution and the resultant was treated at 94° C. for 5 minutes to solubilize the protein, which was prepared as a cell sample solution. […]"}, "[2]": {"test_system": "SNU-16", "experiment": "Cell proliferation, Cell Counting Kit-8", "format": "cell-based", "conditions": "Homo sapiens, 72 h; SNU-16, 10% FBS, three days; read-out: inhibition of cell proliferation IC50", "method": "(§1) Human undifferentiated gastric cancer cell lines (KATO-III (purchased from ATCC)), SNU-16 (purchased from ATCC) and HSC-39 (purchased from Immuno-Biological Laboratories)) were suspended in RPMI1640 media (purchased from Sigma) containing 10% FBS except that KATO-III was suspended in an RMPI1640 medium containing 1% FBS. The cell suspensions (KATO-III: 6×10^4 cells/mL; SNU-16 and HSC-39: 2×10^4 cells/mL) were placed into a 96-well cell culture plate (purchased from NUNC) at 0.1 mL/well and cultured in a 5% CO2 incubator (37° C.) overnight. Following cultivation, 0.1 mL of the test substance 4-(3-chloro-4-(cyclopropylaminocarbonyl)aminophenoxy)-7-methoxy-6-quinolinecarboxamide (methanesulfonate) diluted in an RPMI1640 medium containing 1% or 10% FBS was added to each well and further cultured in a 5% CO2 incubator (37° C.) for three days. Following cultivation, 20 μL of Cell Counting Kit-8 (purchased from DOJINDO) was added to each well and allowed to develop color in a 5% CO2 incubator (37° C.) to determine (measure) the absorbance of each well by using a plate reader MTP-500 (Corona Electric) at a measurement wavelength of 450 nm and a reference wavelength of 660 nm."}, "[3]": {"test_system": "KATO-III", "experiment": "Cell proliferation, Cell Counting Kit-8", "format": "cell-based", "conditions": "Homo sapiens, 72 h, 1% FBS, three days, read-out: inhibition of cell proliferation IC50", "method": "as §1"}, "[4]": {"test_system": "HSC-39", "experiment": "Cell proliferation, Cell Counting Kit-8", "format": "cell-based", "conditions": "Homo sapiens, 72 h; HSC-39, 10% FBS, three days; read-out: inhibition of cell proliferation IC50", "method": "as §1"}, "[5]": {"test_system": "FGFR2", "experiment": "FGFR2 phosphorylation in human undifferentiated gastric cancer cell lines (immunoprecipitation, western blotting)", "format": "cell-based", "conditions": "1 μM, one hour; KATO-III, SNU-16 and HSC-39 cells (FIG. 1)", "method": "Human undifferentiated gastric cancer cell lines (KATO-III (purchased from ATCC)), SNU-16 (purchased from ATCC) and HSC-39 (purchased from Immuno-Biological Laboratories)) were suspended in RPMI1640 media (purchased from Sigma) containing 10% FBS (fetal bovine serum). KATO-III, SNU-16 and HSC-39 are cells showing FGFR2 gene amplification (Laboratory Investigation, 78, 1143-1153, 1998), and are also known as scirrhous gastric cancer cell lines. Each 10 mL of the cell suspensions (5×10^5 cells/mL) was placed into a 75 cm^2 cell culture flask (purchased from FALCON) and cultured in a 5% CO2 incubator (37° C.) overnight. In the case of KATO-III, the medium was replaced by an RMPI1640 medium containing 1% FBS. To this, 10 mL of the test substance 4-(3-chloro-4-(cyclopropylaminocarbonyl)aminophenoxy)-7-methoxy-6-quinolinecarboxamide (methanesulfonate) diluted in RPMI1640 containing 1% or 10% FBS was added and cultured in a 5% CO2 incubator (37° C.) for an hour. The culture solution was collected, each flask was washed with 5 mL PBS, and the mixture of the collected culture and the washing solution was centrifuged at 1,000 rpm, at 4° C. for 5 minutes. […]"}, "[6]": {"test_system": "FGFR2", "experiment": "FGFR2 phosphorylation in tumor tissues of subcutaneous transplanted (xenograft) models", "format": "in vivo, nude mice", "conditions": "SNU-16 and HSC-39 xenografts, oral 10, 30 or 100 mg/kg, tumors removed two hours after administration (FIG. 4)", "method": "Human undifferentiated gastric cancer cell lines (SNU-16 (purchased from ATCC) and HSC-39 (purchased from Immuno-Biological Laboratories) were cultured with RPMI1640 (containing 10% FBS) in a 5% CO2 incubator (37° C.) and cells were collected with trypsin-EDTA according to a conventional method. The cells were suspended in a phosphate buffer to prepare a 5×10^7 cells/mL suspension. Each 0.1 mL of the resulting cell suspensions was subcutaneously transplanted into the side of body of nude mice (purchased from Charles River).\nFollowing transplantation, the test substance 4-(3-chloro-4-(cyclopropylaminocarbonyl)aminophenoxy)-7-methoxy-6-quinolinecarboxamide (methanesulfonate) dissolved in distilled water for injection (purchased from Otsuka Pharmaceutical) was orally administered at 10, 30 or 100 mg/kg once the tumor volume became (reached) about 400-800 mm^3. Tumors were removed two hours after the administration, to which a lysis buffer (50 mM Hepes (pH 7.4), 150 mM NaCl, 10% (v/v) glycerol, 1% TritonX-100, 1.5 mM MgCl2, 1 mM EDTA (pH 8.0), 100 mM NaF, 1 mM PMSF, 10 μg/mL Aprotinin, 50 μg/mL Leupeptin, 1 μg/mL Pepstatin A, 1 mM Na3VO4) and 25 mM β-glycerophosphate and phosphatase inhibitor cocktail II (SIGMA)) was added for homogenization. The resultant was centrifugated at 15,000 rpm, at 4° C. for 15 minutes. 1000 μg/500 μL of The supernatant was prepared as a tumor extract. […]"}, "[7]": {"test_system": "SNU-16", "experiment": "Anti-tumor effect, subcutaneous transplanted (xenograft) model", "format": "in vivo, nude mice", "conditions": "SNU-16 xenograft, oral 1, 3, 10, 30 or 100 mg/kg once a day, four-weeks schedule (FIG. 3)", "method": "(§2) Human undifferentiated gastric cancer cell lines (KATO-III (purchased from ATCC)), SNU-16 (purchased from ATCC) and HSC-39 (purchased from Immuno-Biological Laboratories) were cultured with RPMI1640 (containing 10% FBS) in a 5% CO2 incubator at 37° C. The cells were collected with trypsin-EDTA according to a conventional method. The cells were suspended in a phosphate buffer to prepare a 5×10^7 cells/mL suspension. Each 0.1 mL of the resulting cell suspensions was subcutaneously transplanted into the side of body of nude mice (purchased from Charles River). Following transplantation, the test substance 4-(3-chloro-4-(cyclopropylaminocarbonyl)aminophenoxy)-7-methoxy-6-quinolinecarboxamide (methanesulfonate) dissolved in distilled water for injection (purchased from Otsuka Pharmaceutical) was orally administered at 1, 3, 10, 30 or 100 mg/kg once a day on a four-weeks schedule (except for KATO-III, 30 or 100 mg/kg, once a day, two-weeks schedule) once the tumor volume became (reached) about 100-200 mm^3. The major and minor axes of tumors were measured with Digimatic caliper (Mitsutoyo), and tumor volumes were calculated according to the following formulae. Tumor Volume (TV)=Major axis of tumor (mm)×(Minor axis of tumor)^2 (mm^2)/2"}, "[8]": {"test_system": "KATO-III", "experiment": "Anti-tumor effect, subcutaneous transplanted (xenograft) model", "format": "in vivo, nude mice", "conditions": "oral 30 or 100 mg/kg once a day, two-weeks schedule (FIG. 3)", "method": "as §2"}, "[9]": {"test_system": "HSC-39", "experiment": "Anti-tumor effect, subcutaneous transplanted (xenograft) model", "format": "in vivo, nude mice", "conditions": "HSC-39 xenograft, oral 1, 3, 10, 30 or 100 mg/kg once a day, four-weeks schedule (FIG. 3)", "method": "as §2"}, "[10]": {"molecular_target": "T1, FGFR2 recombinant protein (Homo sapiens, UniProt P21802)", "T1 construct": "purchased Upstate (UK)", "T1 sequence (P21802 22-821)": "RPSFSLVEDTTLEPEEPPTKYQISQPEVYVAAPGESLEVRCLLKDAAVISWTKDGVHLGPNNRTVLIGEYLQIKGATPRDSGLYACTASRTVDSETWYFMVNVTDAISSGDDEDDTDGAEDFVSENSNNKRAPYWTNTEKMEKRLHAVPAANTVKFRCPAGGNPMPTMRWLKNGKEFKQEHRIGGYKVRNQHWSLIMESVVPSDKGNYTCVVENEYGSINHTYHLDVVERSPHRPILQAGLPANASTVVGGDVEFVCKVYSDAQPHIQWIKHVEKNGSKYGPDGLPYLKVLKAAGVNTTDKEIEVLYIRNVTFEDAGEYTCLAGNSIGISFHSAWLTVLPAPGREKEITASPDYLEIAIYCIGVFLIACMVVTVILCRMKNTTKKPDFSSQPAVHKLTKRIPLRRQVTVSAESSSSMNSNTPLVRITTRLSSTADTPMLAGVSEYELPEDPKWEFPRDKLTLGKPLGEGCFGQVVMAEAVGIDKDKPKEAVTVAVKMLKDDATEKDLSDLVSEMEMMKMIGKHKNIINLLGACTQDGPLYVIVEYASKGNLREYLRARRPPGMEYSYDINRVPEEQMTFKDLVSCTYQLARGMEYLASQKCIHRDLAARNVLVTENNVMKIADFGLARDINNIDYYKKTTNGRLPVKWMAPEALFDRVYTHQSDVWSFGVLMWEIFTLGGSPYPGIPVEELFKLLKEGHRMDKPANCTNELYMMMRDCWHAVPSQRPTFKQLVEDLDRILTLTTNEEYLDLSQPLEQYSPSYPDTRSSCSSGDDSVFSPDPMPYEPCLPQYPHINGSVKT", "experiment": "FGFR2 kinase inhibitory activity (cell free kinase assay, Upstate)", "format": "biochemical", "conditions": "poly(Glu, Tyr)4:1 substrate, [γ-33P]-ATP, 40 minutes at room temperature", "description": "Specifically, the FGFR2 kinase inhibitory activity was measured as follows.\nMgATP was added to 25 μL of solution containing 5-10 mU of FGFR2 recombinant protein, 8 mM MOPS (pH 7.0), 0.2 mM EDTA, 2.5 mM MnCl2, 0.1 mg/ml poly (Glu, Tyr)4:1, 10 mM Mg Acetate, 500 cpm/mol [γ-^33P]-ATP and a test substance to initiate reaction.\nFollowing 40 minutes of reaction at room temperature, 5 μL of 3% phosphoric acid was added to terminate the reaction. 10 μL of the reaction solution was spotted on Filtermat A, which was washed with 75 mM phosphoric acid for five times and once with ethanol and then dried. The radioactivity of the spot was determined (measured).\nIn this regard, a value obtained when substrate Poly(Glu, Tyr)4:1 was contained but not the FGFR2 recombinant protein was assumed 0% value while a value obtained when the FGFR2 recombinant protein and substrate Poly(Glu, Tyr)4:1 were contained but not the test substance was assumed 100% value.\nThe kinase activity in the presence of the test substance at each concentration was calculated as percentage of the value obtained by subtracting the 0% value from each radioactivity value to the value obtained by subtracting the 0% value from the 100% value."}}, "data": [{"smiles": "COc1cc2nccc(Oc3ccc(NC(=O)NC4CC4)c(Cl)c3)c2cc1C(N)=O", "note": "[4-(3-chloro-4-(cyclopropylaminocarbonyl)aminophenoxy)-7-methoxy-6-quinolinecarboxamide]", "values": [{"measurement": "cleaved-PARP", "setting": "[1]", "result": "clearly detected"}, {"measurement": "cleaved-caspase-3", "setting": "[1]", "result": "clearly detected"}, {"measurement": "IC50", "setting": "[2]", "result": 251, "unit": "nM"}, {"measurement": "IC50", "setting": "[3]", "result": 141, "unit": "nM"}, {"measurement": "IC50", "setting": "[4]", "result": 157, "unit": "nM"}, {"measurement": "phosphorylation of FGFR2", "setting": "[5]", "result": "almost completely inhibited"}, {"measurement": "phosphorylation of FGFR2 in tumor", "setting": "[6]", "result": "inhibit phosphorylation of FGFR2"}, {"measurement": "anti-tumor effect (tumor volume)", "setting": "[7]", "result": "dose-dependent anti-tumor effect"}, {"measurement": "anti-tumor effect (tumor volume)", "setting": "[8]", "result": "dose-dependent anti-tumor effect"}, {"measurement": "anti-tumor effect (tumor volume)", "setting": "[9]", "result": "dose-dependent anti-tumor effect"}, {"measurement": "IC50", "setting": "[10]", "result": "< 10", "unit": "nM"}]}]}
